Experimental data: US20210107865A1, “ALIPHATIC AMINE AND ITS PREPARATION METHOD AND USE” (COVESTRO D[…], priority 2017, published 2021)

Test: Solubility of lysine in amine compounds and solvents
Type: physicochemical
Details: at 100° C. under normal pressure

For `NCCCC[C@H](N)C(=O)O` [lysine, L-lysine], the “solubility of lysine in 1,5-pentanediamine” value (in 1,5-pentanediamine) was “solubility of lysine in 1,5-pentanediamine is 33 g/100 g,”, the “solubility of lysine in 1,6-hexanediamine” value (in 1,6-hexanediamine) was “is 4.6 g/100 g, measured at 100 °C under normal pressure” and the “solubility of lysine in cyclohexanol” value (in cyclohexanol) was “Ltd. The solubility of lysine in cyclohexanol is 0.01 g/100 g/100 g”. The “solubility of lysine in ethylene glycol” value (in ethylene glycol) was “The solubility of lysine in ethylene glycol is 20 g/100 g,” and the “solubility of lysine in isophoronediamine” value (in isophoronediamine) was “is 5.2 g/100 g, measured at 100 °C under normal pressure”.
